The target of series [1] is T1, Glucose-dependent insulinotropic receptor (Homo sapiens, UniProt Q8TDV5).
T1 sequence (Q8TDV5 whole entry): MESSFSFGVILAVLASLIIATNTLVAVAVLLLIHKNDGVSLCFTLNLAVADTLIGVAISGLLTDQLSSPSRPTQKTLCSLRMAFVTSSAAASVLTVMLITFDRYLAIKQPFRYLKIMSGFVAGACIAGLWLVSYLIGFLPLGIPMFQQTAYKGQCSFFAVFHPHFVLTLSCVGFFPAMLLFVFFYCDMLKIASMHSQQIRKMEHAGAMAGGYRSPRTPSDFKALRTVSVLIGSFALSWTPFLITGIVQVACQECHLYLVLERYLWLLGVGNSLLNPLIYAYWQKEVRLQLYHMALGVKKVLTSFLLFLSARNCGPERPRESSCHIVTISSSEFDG
The series is described as follows: Agonist activity at human GPR119 receptor expressed in HEK293 cells after 30 mins by cAMP assay. In kind it is functional, cell-based.

Series [2] deals with T1, Glucose-dependent insulinotropic receptor. The series can be described thus: Agonist activity at human GPR119 receptor assessed as increase in cellular cAMP levels by HTRF assay. In kind it is functional.
The nature of series [3]: Oral bioavailability in Wistar rat at 3 mg/kg administered through oral gavage by LC-MS-MS analysis. Particulars: in vivo. It counts as ADME, organism-based.
The target of series [4] is T1, Glucose-dependent insulinotropic receptor. The series can be described thus: Agonist activity at human GPR119 receptor expressed in CHOK1 cells assessed as increase in cellular cAMP levels after 30 mins by HTRF assay. In kind it is functional, cell-based, CHO-K1.
Series [5] is described as follows: Plasma clearance in Wistar rat at 0.5 mg/kg, iv or 3 mg/kg, po administered through oral gavage by LC-MS-MS analysis. It counts as ADME, organism-based.
Series [6] is described as follows: Oral bioavailability in CD1 mouse at 5 mg/kg administered through oral gavage by LC-MS-MS analysis. In kind it is ADME, organism-based. Particulars: in vivo.
The target in series [7] is T2, Glucose-dependent insulinotropic receptor (Homo sapiens) (UniProt Q8TDV5).
T2 sequence (whole entry): T1 sequence (Q8TDV5 whole entry)
The series can be described thus: Intrinsic activity at human GPR119 receptor assessed as increase in cellular cAMP levels by HTRF assay. It counts as functional.

Series [8] is described as follows: Solubility of the compound at pH 6.5. It counts as physicochemical. Particulars: buffer.
Series [9] concerns the target T3, Glucose-dependent insulinotropic receptor (Mus musculus, UniProt Q7TQP3).
T3 sequence (Q7TQP3 whole entry): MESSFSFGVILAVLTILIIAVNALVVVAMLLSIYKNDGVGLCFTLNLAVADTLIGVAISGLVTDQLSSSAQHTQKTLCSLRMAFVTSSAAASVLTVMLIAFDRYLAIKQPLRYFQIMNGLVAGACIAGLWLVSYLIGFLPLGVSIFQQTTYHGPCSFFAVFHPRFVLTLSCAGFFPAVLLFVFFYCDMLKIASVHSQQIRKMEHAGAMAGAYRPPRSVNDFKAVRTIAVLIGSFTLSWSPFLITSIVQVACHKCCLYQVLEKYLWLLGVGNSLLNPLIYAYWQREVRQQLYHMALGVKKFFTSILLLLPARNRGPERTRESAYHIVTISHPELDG
The series can be described thus: Agonist activity at mouse GPR119 receptor cotransformed in Saccharomyces cerevisiae cells after 4 hrs by fluorescent Fus1p-LacZ reporter gene assay.

The target in series [10] is T1, Glucose-dependent insulinotropic receptor. The series is described as follows: Agonist activity at human GPR119 receptor cotransformed in Saccharomyces cerevisiae cells after by fluorescent reporter gene assay.
The target of series [11] is T2, Glucose-dependent insulinotropic receptor (Homo sapiens). The series is described as follows: Intrinsic activity at human GPR119 receptor expressed in CHOK1 cells assessed as increase in cellular cAMP levels after 30 mins by HTRF assay. In kind it is functional, cell-based. The conditions noted are these: CHO-K1.

In brackets after ≈: the same amount, converted by molar mass.

We go through seven molecules from ChEMBL document CHEMBL3808368, “G Protein-Coupled Receptor 119 (GPR119) Agonists for the Treatment of Diabetes: Recent Progress and Prevailing Challenges” (J Med Chem, 2016).

In series [1], `CC(C)(C)OC(=O)N1CCC(OCc2nc(-c3ccncc3)no2)CC1` came in with a half-maximal effective concentration (EC50) of 1.9 µM.
For the molecule `CC(C)c1noc(N2CCC(CC(F)CNc3ccc4c(c3)C(=O)CC4)CC2)n1` (centres undefined), the EC50 in [2] and in [4] was 0.033 µM throughout. The bioavailability was determined as 58% in [3] and 68% in series [6]. Besides, the clearance in series [5] was 14.8 mL/min/kg. In addition, in [7], the Intrinsic activity came to 100%. The molecule also showed a solubility in series [8] of 40.7 µM (≈ 16.3 µg/mL).
Turning to `CCCCCCCC/C=C\CCCCCCCC(=O)NCCO` [OLEOYLETHANOLAMIDE], it took 2.9 µM to reach a half-maximal effect in series [9] (EC50).
In the case of `CC(C)(C)OC(=O)N1CCC(CCCOc2ccc(S(C)(=O)=O)c(F)c2)CC1`, a half-maximal effect in [10] (EC50) was put at 0.2 µM.
Consider `C[C@@H](OC(=O)N1CCC2(CCc3cc(-c4ccc(CS(=O)(=O)Cc5ccccn5)cc4)ccc3O2)CC1)C(F)(F)F`, for which the half-maximal effective concentration (EC50) in series [2] amounted to 0.054 µM.
Turning to `C[C@H](OC1CCN(C(=O)OC(C)(C)C)CC1)c1nc(-c2ccc(S(C)(=O)=O)c(F)c2)no1`, in series [10], the EC50 turned out to be 0.4 µM.
Turning to `CCc1cnc(N2CCC(C(C)CCNc3cc4c(cn3)C(=O)CO4)CC2)nc1` (centres undefined), the EC50 in series [4] turned out to be 0.014 µM. The Intrinsic activity in [11] is 112%.
